Data as given in patent US8129365B2, “Water-soluble, fluorescent compounds for detection of potassium ions” (The Regents of the University of California, priority 2005, dated 2012).
“Also recorded” adds a separate entry of the source.

What was measured:
CHO-K1 cells [1] = assay: K^+ efflux in CHO cells measured by TAC-Red fluorescence, fluorescence microscopy; assay type: cell-based; conditions: 10 μM pre-incubation, epifluorescence microscopy
Protocol: (§1) TAC-Red as an indicator for measurement of K^+ channel function for high-throughput screening applications. CHO-K1 cells (ATCC CCL-61) were cultured in Ham's F12 media supplemented with 10% fetal bovine serum, 100 U/ml penicillin and 100 μg/ml streptomycin at 37° C. in a 5% CO2/95% air atmosphere and used at ˜90% confluence. For measurements using epifluorescence microscopy cells were grown until reaching confluency on 18-mm diameter round glass coverslips. For fluorescence plate reader assays cells were cultured on Costar 96-well black plates with a clear flat bottom and used when just confluent. […]
Fluorescence microscopy: For most experiments cells on coverslips were incubated in 1 ml high K^+ buffer for 2 min prior to experiments. […] The washed cells were immediately placed cell-side down on the slide and fluorescence measured continuously. TAC-Red fluorescence was excited at 545±30 nm and detected through a 610±75 nm filter (570 nm dichroic) using a long working distance 25× air objective lens.
TAC-Red was used as an indicator of extracellular K^+, such that the rate of initial K^+ efflux into a 0 K^+ buffer could be measured. […]

CHO-K1 cells [2] = assay: K^+ efflux measured by TAC-Red fluorescence, plate reader assay; assay type: cell-based; conditions: 10 μM preincubation
Protocol: as §1
Plate reader assay: Measurements were done using a Fluostar plate reader (BMG LabTechnologies) with syringe pump for automated solution addition. […] The plate was loaded onto plate reader and after 6 s of fluorescence measurement 30 μl of TAC-Red (150 μM) in 0 K^+ buffer was added via syringe pump. TAC-Red fluorescence was excited using an HQ545/30 filter (Chroma) and emitted fluorescence was detected through a HQ585/30 filter.

[3] = Fluorescence titrations of TAC-Red (spectroscopic analysis); assay type: physicochemical
Protocol: The TAC-Red compound was subjected to spectroscopic analysis. Fluorescence measurements were carried out by standard procedures using a FluoroMax-3 fluorimeter. Fluorescence titrations were carried out at 540 nm excitation and 574 nm emission wavelengths using aqueous solution containing about 7 μM at pH 7.0 (buffered with 5 mM HEPES) unless titrated with NaOH/HCl to other pH.
Spectra in FIG. 1, Panel b were obtained using balanced KCl/choline Cl to keep ionic strength constant at 300 mM. The titration in FIG. 1, panel c was done by adding indicated NaCl/KCl from concentrated stock solutions. The data in FIG. 1, panel d were obtained at constant ionic strength (300 mM) using NaCl or choline Cl to balance the KCl.

Water solubility = assay type: physicochemical
[4] = test system: Fisher rat thyroid epithelial cell monolayers; assay: Transport across epithelial cell monolayers; assay type: in vitro ADME
Description: (§2) TAC-Red fluorescence was not sensitive to divalent cations (Ca^++ or Mg^++) or various anions, or to pH in the range 6-8 (FIG. 1, panel e).

cell viability or growth = assay: Cell viability or growth; assay type: cell-based
Description: as §2

brain cortex ECS = assay: TAC-Red [K^+]o measurements in brain cortex (spreading depression); assay type: in vivo, mice; conditions: freshly cut brain slices, 5 min transdural loading with about 50 μM
Protocol: TAC-Red [K^+]o measurements in brain cortex. Wildtype and AQP4 null mice in a CD1 genetic background (30-35 g body weight/age 10-12 weeks) were used (described in Ma et al. Ma et al. J. Clin. Invest. 100, 957-962 (1997)). These mice are phenotypically normal at baseline and have normal brain architecture; however they manifest altered brain swelling in response to cytotoxic and vasogenic forms of edema. Mice were anesthetized with 2,2,2-tribromoethanol (125 mg/kg, intraperitoneal (ip)) and the head was immobilized in a standard mouse stereotactic frame. Body temperature was maintained at 36-37° C. using a heating pad. The skull was exposed by a midline skin incision. A 2.7 mm diameter circular area of the thin, semi-translucent skull bone located 0.5 mm lateral to the midline and 1 mm posterior to the bregma was removed using a microdrill under microscope to expose intact dura with underlying brain. […]
Fluorescence was measured using a 1.6× objective lens (working distance 24 mm, numerical aperture 0.21), and custom filter set for TAC-Red (HQ, Chroma). […] Fluorescence was imaged using a 14-bit 1024×1024 pixel cooled CCD camera (CoolSnap HQ, Photometrics). […]
Image analysis. […] Half-times (t1/2) for the increasing and decreasing phases of TAC-Red fluorescence were determined by exponential regression analysis. […]

[5] = Stop-flow measurement of TAC-Red fluorescence response; assay type: physicochemical; conditions: K^+ increased from 0 to 5 mM
Protocol: The TAC-Red fluorescence response was rapid when K^+ was increased from 0 to 5 mM in a stop-flow measurement (FIG. 1, panel c, inset), with greater than 90% of the fluorescence increase occurring in under 1 ms.

Sensitivity of fluorescence to pH ([3]; pH in the range 6-8)	Water solubility (Water solubility)	Transport across cell monolayers ([4]; in 6 hours)	Depth of TAC-Red staining beneath the brain surface (brain cortex ECS)	Structure (SMILES)	Effect on K^+ efflux (CHO-K1 cells [1])	Effect on K^+ efflux (CHO-K1 cells [2])	Effect of Na^+ on TAC-Red fluorescence vs. K^+ ([3]; 150 mM Na^+ in place of 150 mM choline^+)	Effect of Na^+ on TAC-Red fluorescence ([3]; 50 and 150 mM Na^+)	Sensitivity of fluorescence to divalent cations ([3]; Ca^++ or Mg^++)	TAC-Red fluorescence increase ([3]; K^+ concentration increasing from 0-200 mM, 540 nm excitation, 574 nm emission, pH 7.0)	K^+ sensitivity of fluorescence ([3]; K^+ in the range 0 to >100 mM)	K^+ sensitivity of fluorescence ([3]; K^+ range 0-40 mM expected in the brain ECS)	K^+-to-Na^+ selectivity ratio ([3]; at 50 mM)	Specificity in titrations with monovalent cations ([3]; monovalent cations)	Sensitivity of fluorescence to various anions ([3]; various anions)	Membrane permeability [4]	Effect on cell viability or growth (cell viability or growth)	Share of fluorescence increase occurring in under 1 ms [5]
–	–	–	–	CC(C)[C@@H]1NC(=O)[C@H](C)OC(=O)[C@@H](C(C)C)NC(=O)[C@@H](C(C)C)OC(=O)[C@H](C(C)C)NC(=O)[C@H](C)OC(=O)[C@@H](C(C)C)NC(=O)[C@@H](C(C)C)OC(=O)[C@H](C(C)C)NC(=O)[C@H](C)OC(=O)[C@@H](C(C)C)NC(=O)[C@@H](C(C)C)OC1=O [valinomycin]	increased K^+ efflux	increased K^+ efflux	–	–	–	–	–	–	–	–	–	–	–	–
not sensitive	water soluble	< 1%	> 500 μm	COCCOc1cc(-c2c3ccc(=[N+](C)C)cc-3oc3cc(N(C)C)ccc23)ccc1N1CCOc2cc(C)ccc2N2CCOCCOCCN(CCOCCOCC2)c2ccc(C)cc2OCC1.[Cl-] [TAC-Red, {6-Dimethylamino-9-[4-(6,7,9,10,12,13,20,21,23,24-decahydro-2,17-dimethyl-5,14-(ethanoxyethanoxyethano)-5H,14H,22H-dibenzo[h,q][1,4,10,16,7,13,19]tetraoxatriazacyclo-heneicosin-22-yl)-3-(2-methoxyethoxy)phenyl]xanthen-3-ylidene}dimethylammonium chloride]	–	–	did not affect	increased slightly	not sensitive	more than 23 fold	highly sensitive	excellent K^+ sensitivity	about 37	specificity for K^+, Rb^+ and Cs^+ over Na^+ and Li^+	not sensitive	membrane impermeant; also recorded: membrane-impermeable	did not affect	greater than 90%
